Measured values: US20070128217A1 (priority 2003, published 2007)

What was measured:
[1] = tested on: antibodies in sera from SARS patients (sera 1a, 1b, 2, 6, 37, 62, London, SARS-yellow, SARS-green); assay type: binding, human; design: Binding of serum 6 to linear peptides of protein X1 of SARS-CoV Urbani / Binding of serum 37 to linear peptides of protein X1 of SARS-CoV Urbani / Binding of serum 6 to looped/cyclic peptide (PEPSCAN-ELISA) / Binding of serum 37 to looped/cyclic peptide (PEPSCAN-ELISA) / Binding of serum 37 to looped/cyclic peptides of protein X1 of SARS-CoV Urbani / Binding of serum 6 to linear peptides of protein X2 / Binding of serum 37 to linear peptides of protein X2 / Binding of serum 37 to looped/cyclic peptides of protein X2 of SARS-CoV Urbani / Binding of serum 6 to linear peptides of protein M of SARS-CoV Urbani / Binding of serum 37 to linear peptides of protein M of SARS-CoV Urbani / Binding of serum 6 to looped/cyclic peptides of protein M of SARS-CoV Urbani / Binding of serum 37 to looped/cyclic peptides of protein M of SARS-CoV Urbani / Binding of serum 6 to linear peptides of protein X3 of SARS-CoV Urbani / Binding of serum 37 to linear peptides of protein X3 of SARS-CoV Urbani / Binding of serum 37 to looped/cyclic peptides of protein X3 of SARS-CoV Urbani / Binding of serum 6 to linear peptides of protein X4 of SARS-CoV Urbani / Binding of serum 37 to linear peptides of protein X4 of SARS-CoV Urbani / Binding of serum 37 to looped/cyclic peptides of protein X4 of SARS-CoV Urbani / Binding of serum 6 to linear peptides of protein X5 of SARS-CoV Urbani / Binding of serum 37 to linear peptides of protein X5 of SARS-CoV Urbani / Binding of serum 37 to looped/cyclic peptides of protein X5 of SARS-CoV Urbani / Binding of serum 6 to linear peptides of protein N of SARS-CoV Urbani / Binding of serum 37 to linear peptides of protein N of SARS-CoV Urbani / Binding of serum 6 to linear peptide (PEPSCAN-ELISA) / Binding of serum 1a to looped/cyclic peptides of protein N of SARS-CoV Urbani / Binding of serum 1b to looped/cyclic peptides of protein N of SARS-CoV Urbani / Binding of serum 2 to looped/cyclic peptides of protein N of SARS-CoV Urbani / Binding of serum 6 to looped/cyclic peptides of protein N of SARS-CoV Urbani / Binding of serum 37 to looped/cyclic peptides of protein N of SARS-CoV Urbani / Binding of serum 62 to looped/cyclic peptides of protein N of SARS-CoV Urbani / Binding of serum London to looped/cyclic peptides of protein N of SARS-CoV Urbani / Binding of serum SARS-green to looped/cyclic peptides of protein N of SARS-CoV Urbani: unit not given here
[2] = tested on: control sera (pooled serum of ten healthy LUMC hospital workers; commercial negative donor pooled serum from the Dutch bloodbank); assay type: binding, human; design: Binding of Control serum LUMC to linear peptides / Binding of Control serum Blood-bank to linear peptides / Binding of Control serum LUMC to looped peptides / Binding of Control Serum Blood-Bank to Looped peptides / Binding of Control serum LUMC to linear peptides of the protein M of SARS-CoV Urbani / Binding of Control serum Blood-bank to linear peptides of the protein M of SARS-CoV Urbani / Binding of Control serum LUMC to looped peptides of the protein M of SARS-CoV Urbani / Binding of Control Serum Blood-Bank to Looped peptides of the protein M of SARS-CoV Urbani: unit not given here
[3] = tested on: rabbit serum obtained by immunizing a rabbit with the SARS-CoV strain Frankfurt 1; assay type: binding; design: Binding of a rabbit serum to linear peptides / Binding of a rabbit serum to looped peptides / Rabbit serum linear peptides / Rabbit serum looped peptides / Binding of a rabbit serum to linear peptides of protein N of SARS-CoV Urbani (Rabbit serum linear peptides) / Binding of a rabbit serum to looped/cyclic peptides of protein N of SARS-CoV Urbani (Rabbit serum looped peptides): unit not given here

## EVYYQLESTQITTDT
[1]
  Binding of serum 1a to linear peptides of protein X1 of SARS-CoV Urbani: 0.7
  Binding of serum 1a to looped/cyclic peptides of protein X1 of SARS-CoV Urbani: 0.5
  Binding of serum 1b to linear peptides of protein X1 of SARS-CoV Urbani: 0.6
  Binding of serum 1b to looped/cyclic peptides of protein X1 of SARS-CoV Urbani: 0.4
  Binding of serum 2 to linear peptides of protein X1 of SARS-CoV Urbani: 0.4
  Binding of serum 2 to looped/cyclic peptides of protein X1 of SARS-CoV Urbani: 0.1
  Binding of serum 6 to linear peptides of protein X1 of SARS-CoV Urbani: 0.5
  Binding of serum 6 to looped/cyclic peptides of protein X1 of SARS-CoV Urbani: 0.2
  Binding of serum 37 to linear peptides of protein X1 of SARS-CoV Urbani: 0.7
  Binding of serum 37 to looped/cyclic peptides of protein X1 of SARS-CoV Urbani: 0.5
  Binding of serum 62 to linear peptides of protein X1 of SARS-CoV Urbani: 0.4
  Binding of serum 62 to looped/cyclic peptides of protein X1 of SARS-CoV Urbani: 0.5
  Binding of serum London to linear peptides of protein X1 of SARS-CoV Urbani: 0.3
  Binding of serum London to looped/cyclic peptides of protein X1 of SARS-CoV Urbani: 0.2
  Binding of serum SARS-green to linear peptides of protein X1 of SARS-CoV Urbani: 0.2
  Binding of serum SARS-green to looped/cyclic peptides of protein X1 of SARS-CoV Urbani: 0.3
  Binding of serum SARS-yellow to linear peptides of protein X1 of SARS-CoV Urbani: 0.3
  Binding of serum SARS-yellow to looped/cyclic peptides of protein X1 of SARS-CoV Urbani: 0.3
[2]
  Binding of Control Serum Blood-Bank to Looped peptides: 0.5
  Binding of Control serum Blood-bank to linear peptides: 0.4
  Binding of Control serum LUMC to linear peptides: 0.4
  Binding of Control serum LUMC to looped peptides: 0.4
[3]
  Binding of a rabbit serum to linear peptides: 0.1
  Binding of a rabbit serum to looped peptides: 0.4

## FAAYNRYRIGNYKLN
[1]
  Binding of serum 1a to linear peptides of protein M of SARS-CoV Urbani: 0.6
  Binding of serum 1a to looped/cyclic peptides of protein M of SARS-CoV Urbani: 0.8
  Binding of serum 1b to linear peptides of protein M of SARS-CoV Urbani: 0.3
  Binding of serum 1b to looped/cyclic peptides of protein M of SARS-CoV Urbani: 0.4
  Binding of serum 2 to linear peptides of protein M of SARS-CoV Urbani: 0.5
  Binding of serum 2 to looped/cyclic peptides of protein M of SARS-CoV Urbani: 0.7
  Binding of serum 6 to linear peptides of protein M of SARS-CoV Urbani: 0.4
  Binding of serum 6 to looped/cyclic peptides of protein M of SARS-CoV Urbani: 1.3
  Binding of serum 37 to linear peptides of protein M of SARS-CoV Urbani: 0.5
  Binding of serum 37 to looped/cyclic peptides of protein M of SARS-CoV Urbani: 0.6
  Binding of serum 62 to linear peptides of protein M of SARS-CoV Urbani: 0.7
  Binding of serum 62 to looped/cyclic peptides of protein M of SARS-CoV Urbani: 0.6
  Binding of serum London to linear peptides of protein M of SARS-CoV Urbani: 0.3
  Binding of serum London to looped/cyclic peptides of protein M of SARS-CoV Urbani: 0.7
  Binding of serum SARS-green to linear peptides of protein M of SARS-CoV Urbani: 0.2
  Binding of serum SARS-green to looped/cyclic peptides of protein M of SARS-CoV Urbani: 0.2
  Binding of serum SARS-yellow to linear peptides of protein M of SARS-CoV Urbani: 0.0
  Binding of serum SARS-yellow to looped/cyclic peptides of protein M of SARS-CoV Urbani: 0.8
[2]
  Binding of Control Serum Blood-Bank to Looped peptides of the protein M of SARS-CoV Urbani: 0.6
  Binding of Control serum Blood-bank to linear peptides of the protein M of SARS-CoV Urbani: 0.7
  Binding of Control serum LUMC to linear peptides of the protein M of SARS-CoV Urbani: 0.3
  Binding of Control serum LUMC to looped peptides of the protein M of SARS-CoV Urbani: 0.7
[3]
  Rabbit serum linear peptides: 0.3
  Rabbit serum looped peptides: 0.6

## FAFACADGTRHTYQL
[1]
  Binding of serum 1a to linear peptides of protein X4 of SARS-CoV Urbani: 0.7
  Binding of serum 1a to looped/cyclic peptides of protein X4 of SARS-CoV Urbani: 0.8
  Binding of serum 1b to linear peptides of protein X4 of SARS-CoV Urbani: 0.5
  Binding of serum 1b to looped/cyclic peptides of protein X4 of SARS-CoV Urbani: 0.5
  Binding of serum 2 to linear peptides of protein X4 of SARS-CoV Urbani: 0.3
  Binding of serum 2 to looped/cyclic peptides of protein X4 of SARS-CoV Urbani: 0.9
  Binding of serum 6 to linear peptides of protein X4 of SARS-CoV Urbani: 0.5
  Binding of serum 6 to looped/cyclic peptides of protein X4 of SARS-CoV Urbani: 0.5
  Binding of serum 37 to linear peptides of protein X4 of SARS-CoV Urbani: 0.6
  Binding of serum 37 to looped/cyclic peptides of protein X4 of SARS-CoV Urbani: 0.6
  Binding of serum 62 to linear peptides of protein X4 of SARS-CoV Urbani: 0.7
  Binding of serum 62 to looped/cyclic peptides of protein X4 of SARS-CoV Urbani: 0.5
  Binding of serum London to linear peptides of protein X4 of SARS-CoV Urbani: 0.6
  Binding of serum London to looped/cyclic peptides of protein X4 of SARS-CoV Urbani: 0.2
  Binding of serum SARS-green to linear peptides of protein X4 of SARS-CoV Urbani: 0.4
  Binding of serum SARS-green to looped/cyclic peptides of protein X4 of SARS-CoV Urbani: 0.5
  Binding of serum SARS-yellow to linear peptides of protein X4 of SARS-CoV Urbani: 0.2
  Binding of serum SARS-yellow to looped/cyclic peptides of protein X4 of SARS-CoV Urbani: 0.4
[2]
  Binding of Control Serum Blood-Bank to Looped peptides: 0.8
  Binding of Control serum Blood-bank to linear peptides: 0.7
  Binding of Control serum LUMC to linear peptides: 0.5
  Binding of Control serum LUMC to looped peptides: 0.7
[3]
  Rabbit serum linear peptides: 0.5
  Rabbit serum looped peptides: 0.1

## FAYSNRNRFLYIIKL
[1]
  Binding of serum 1a to linear peptides of protein M of SARS-CoV Urbani: 0.6
  Binding of serum 1b to linear peptides of protein M of SARS-CoV Urbani: 0.4
  Binding of serum 2 to linear peptides of protein M of SARS-CoV Urbani: 0.7
  Binding of serum 6 to linear peptides of protein M of SARS-CoV Urbani: 0.3
  Binding of serum 37 to linear peptides of protein M of SARS-CoV Urbani: 0.7
  Binding of serum 62 to linear peptides of protein M of SARS-CoV Urbani: 0.7
  Binding of serum London to linear peptides of protein M of SARS-CoV Urbani: 0.3
  Binding of serum SARS-green to linear peptides of protein M of SARS-CoV Urbani: 0.2
  Binding of serum SARS-yellow to linear peptides of protein M of SARS-CoV Urbani: 0.1
  Recognition of the peptide by sera of SARS-CoV infected individuals, and form (linear, looped/cyclic) in which it is recognized: recognized in looped/cyclic form
[2]
  Binding of Control Serum Blood-Bank to Looped peptides of the protein M of SARS-CoV Urbani: 0.4
  Binding of Control serum Blood-bank to linear peptides of the protein M of SARS-CoV Urbani: 0.6
  Binding of Control serum LUMC to linear peptides of the protein M of SARS-CoV Urbani: 0.4
  Binding of Control serum LUMC to looped peptides of the protein M of SARS-CoV Urbani: 0.6
[3]
  Rabbit serum linear peptides: 0.7
  Rabbit serum looped peptides: 0.6
